Columns and labels:
wt HIV-1 IN = wt HIV-1 IN (Human immunodeficiency virus type 1 group M subtype B, UniProt P12497); details: read-out: IC50, inhibition with two blunt-ended DNA molecules in SC; cited from earlier work
Q148H IN = Q148H IN (Human immunodeficiency virus type 1 group M subtype B, UniProt P12497, Q1295H); format: biochemical, HIV-1; details: IC50 Q148H vs IC50 wt IN
N155H IN-DNA complex = details: cited from earlier work
wt IN-DNA complex = details: cited from earlier work
[1] = molecular target: HIV-1 synaptic complex (SC) (Human immunodeficiency virus type 1 group M subtype B, UniProt P12497); test: Trapping of SC and H-SC on native agarose gels; format: biochemical; details: wt IN 20 nM, U5 DNA 0.5 nM, 2 h at 37°C, native agarose gel
HIV-1 = details: in 50% normal human serum; cited from earlier work
N155H IN = N155H IN (Human immunodeficiency virus type 1 group M subtype B, UniProt P12497, N1302H); format: biochemical, HIV-1; details: IC50 N155H vs IC50 wt IN

## O=C(NCc1ccc(F)cc1)c1nc(N2CCCCS2(=O)=O)c2cccnc2c1O [L-870,810]
Wt HIV-1 IN
  IC50: ~32 nM

## CCN1C[C@H](C)n2c(c(O)c3c(=O)n(Cc4ccc(F)c(Cl)c4)nc(C(=O)NC)c32)C1=O [MK-2048]
Q148H IN
  Fold change in IC50 for FS products, Q148H IN relative to wt IN (resistance): 2 fold
N155H IN-DNA complex
  Dissociation half-life from N155H IN-DNA complex: ~4 h
Wt IN-DNA complex
  Dissociation half-life from wt IN-DNA complex: ~32 h
[1]
  Inhibitor concentration at which trapped SC and H-SC were first detected: ≥ 10 nM
HIV-1
  Antiviral activity IC95: 41 nM

## Cc1nnc(C(=O)NC(C)(C)c2nc(C(=O)NCc3ccc(F)cc3)c(O)c(=O)n2C)o1 [RAL, raltegravir]
N155H IN-DNA complex
  Dissociation half-life from N155H IN-DNA complex: ~0.7 h
Wt IN-DNA complex
  Dissociation half-life from wt IN-DNA complex: 7.3 h

## O=C(O)C(=O)/C=C(\O)c1ccc2c(c1)c(=O)c(/C(O)=C/C(=O)C(=O)O)cn2Cc1ccc(F)cc1 [RDS 1997]
[1]
  Inhibitor concentration at which trapped SC and H-SC were first detected: ≥ 50 nM

## O=C(O)C(=O)C=C(O)c1cn(Cc2ccc(F)cc2)c2cc(N3CCCC3)ccc2c1=O [RDS 2197]
N155H IN
  Fold change in IC50 for FS products, N155H IN relative to wt IN (resistance): 1.3 fold
[1]
  Inhibitor concentration at which trapped SC and H-SC were first detected: ≥ 250 nM

Source: publication PMC2965028 (Biochemistry, 2010)
